The target of this test is T1, full-length recombinant human NEK7 (Homo sapiens, UniProt Q8TDX7).
T1 construct: full-length recombinant human NEK7; GST (N); purchased SignalChem Nab 09-10G; host or cells: Sf9 insect cells (baculovirus)
The test can be described thus: NEK7 Enzymatic Assay. Format: biochemical. The following applies: casein substrate, [33P]-ATP, 2 hours at room temperature. The method, then:
Casein substrate (from bovine milk, hydrolyzed and partially dephosphorylated mixture of α, β and κ caseins, obtained from Sigma Aldrich, catalogue #C4765, diluted in distilled water to a final concentration of 1 mg/mL) and full-length recombinant human NEK7 (expressed by baculovirus in Sf9 insect cells using a N-terminal GST tag, obtained from SignalChem, catalogue #Nab 09-10G, 0.1 μg/μL) were mixed in assay buffer (20 mM Hepes pH 7.5, 10 mM MgCl2, 1 mM EGTA, 0.02% Brij35, 0.02 mg/ml BSA, 0.1 mM Na3VO4, 2 mM DTT, 1% DMSO). Compounds of interest (serial 3-fold dilution in DMSO from 10 μM to 0.5 nM) or vehicle (1% DMSO) were dispensed into the kinase reaction mixture by Acoustic technology (Echo550; nanoliter range). After incubation at room temperature for 20 minutes, the kinase reaction was initiated by addition of [^33P]-ATP (specific activity 10 μCi/μl) and the mixture was incubated at room temperature for 2 hours. The reaction was then stopped by spotting the reaction mixture on strips of phosphocellulose P81 paper. Following washing, the radioactivity of the P81 paper was measured and kinase activity data were expressed as the percent remaining kinase activity in test samples compared to vehicle reactions. IC50 values and curve fits were obtained using Prism (GraphPad Software).

One may read the IC50 as the concentration that inhibits the measured activity by half.

Each structure is given as a SMILES string. Bounds are passed on as bounds.

T1 sequence (Q8TDX7 whole entry): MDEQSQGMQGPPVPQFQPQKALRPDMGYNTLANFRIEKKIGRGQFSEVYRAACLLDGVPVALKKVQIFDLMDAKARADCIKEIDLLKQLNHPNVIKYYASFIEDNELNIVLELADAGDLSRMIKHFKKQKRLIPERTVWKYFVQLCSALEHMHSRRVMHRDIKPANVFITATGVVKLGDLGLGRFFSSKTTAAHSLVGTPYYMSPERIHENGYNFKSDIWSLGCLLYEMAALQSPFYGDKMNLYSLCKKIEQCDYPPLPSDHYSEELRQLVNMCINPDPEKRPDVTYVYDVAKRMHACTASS

In the case of `CC(C)n1nc(-c2ccc(NC(=O)Nc3cc(C(C)(C)C)no3)c(Cl)c2)c2c(N)ncnc21` [Example 6, 1-(4-(4-amino-1-isopropyl-1H-pyrazolo[3,4-d]pyrimidin-3-yl)-2-chlorophenyl)-3-(3-(tert-butyl)isoxazol-5-yl)urea], the IC50 is over 501 nM.

For `CC(C)(C)c1cc(NC(=O)Nc2ccc(-c3nn(C4CC(F)(F)C4)c4ncnc(N)c34)cc2F)on1` [Example 16, 1-(4-(4-amino-1-(3,3-difluorocyclobutyl)-1H-pyrazolo[3,4-d]pyrimidin-3-yl)-2-fluorophenyl)-3-(3-(tert-butyl)isoxazol-5-yl)urea], the IC50 is over 501 nM.

On to `CC(C)(F)c1cc(NC(=O)Nc2ccc(-c3nn(C4CC4)c4ncnc(N)c34)cc2F)on1` [Example 27, 1-(4-(4-amino-1-cyclopropyl-1H-pyrazolo[3,4-d]pyrimidin-3-yl)-2-fluorophenyl)-3-(3-(2-fluoropropan-2-yl)isoxazol-5-yl)urea], for which the 50% inhibitory concentration (IC50) is over 501 nM.

As to `Cn1nc(-c2ccc(NC(=O)Nc3cc(C(C)(C)C)no3)c(Cl)c2)c2c(N)ncnc21` [Example 28, 1-(4-(4-amino-1-methyl-1H-pyrazolo[3,4-d]pyrimidin-3-yl)-2-chlorophenyl)-3-(3-(tert-butyl)isoxazol-5-yl)urea], the IC50 was over 501 nM.

As for `CC(C)(C)c1cc(NC(=O)Nc2ccc(-c3nn(C4CC4)c4ccnc(N)c34)cc2)on1` [Example 31, 1-(4-(4-amino-1-cyclopropyl-1H-pyrazolo[4,3-c]pyridin-3-yl)phenyl)-3-(3-(tert-butyl)isoxazol-5-yl)urea], the half-inhibitory concentration (IC50) was over 501 nM.

In the case of `CC(C)(C)c1csc(NC(=O)Nc2ccc(-c3nn(C4CC4)c4ncnc(N)c34)cc2F)n1` [Example 34, 1-(4-(4-amino-1-cyclopropyl-1H-pyrazolo[3,4-d]pyrimidin-3-yl)-2-fluorophenyl)-3-(4-(tert-butyl)thiazol-2-yl)urea], the IC50 is over 501 nM.

For the compound `CC(C)(C)c1cc(NC(=O)Nc2ccc(-c3nn(C4CC4)c4ncnc(N)c34)cc2F)sn1` [Example 35, 1-(4-(4-amino-1-cyclopropyl-1H-pyrazolo[3,4-d]pyrimidin-3-yl)-2-fluorophenyl)-3-(3-(tert-butyl)isothiazol-5-yl)urea], the half-inhibitory concentration (IC50) was over 501 nM.

For `CC(C)(C)c1nnc(NC(=O)Nc2ccc(-c3nn(C4CC4)c4ncnc(N)c34)cc2F)o1` [Example 36, 1-(4-(4-amino-1-cyclopropyl-1H-pyrazolo[3,4-d]pyrimidin-3-yl)-2-fluorophenyl)-3-(5-(tert-butyl)-1,3,4-oxadiazol-2-yl)urea], the half-inhibitory concentration (IC50) is over 501 nM.

With `CC(C)(C)c1nsc(NC(=O)Nc2ccc(-c3nn(C4CC4)c4ncnc(N)c34)cc2F)n1` [Example 37, 1-(4-(4-amino-1-cyclopropyl-1H-pyrazolo[3,4-d]pyrimidin-3-yl)-2-fluorophenyl)-3-(3-(tert-butyl)-1,2,4-thiadiazol-5-yl)urea], the IC50 is over 501 nM.

For `CC(C)(C)n1cnc(NC(=O)Nc2ccc(-c3nn(C4CC4)c4ncnc(N)c34)cc2F)n1` [Example 38, 1-(4-(4-amino-1-cyclopropyl-1H-pyrazolo[3,4-d]pyrimidin-3-yl)-2-fluorophenyl)-3-(1-(tert-butyl)-1H-1,2,4-triazol-3-yl)urea], the half-maximal inhibitory concentration (IC50) is over 501 nM.

For `CCC(CC)c1cc(NC(=O)Nc2ccc(-c3nn(C4CC4)c4ncnc(N)c34)cc2F)on1` [Example 40, 1-(4-(4-amino-1-cyclopropyl-1H-pyrazolo[3,4-d]pyrimidin-3-yl)-2-fluorophenyl)-3-(3-(pentan-3-yl)isoxazol-5-yl)urea], the IC50 fell in the range of 301 to 500 nM.

Consider `CC(C)c1cc(NC(=O)Nc2ccc(-c3nn(C4CC4)c4ncnc(N)c34)cc2F)on1` [Example 41, 1-(4-(4-amino-1-cyclopropyl-1H-pyrazolo[3,4-d]pyrimidin-3-yl)-2-fluorophenyl)-3-(3-isopropylisoxazol-5-yl)urea], for which the IC50 is under 150 nM.

`CCc1cc(NC(=O)Nc2ccc(-c3nn(C4CC4)c4ncnc(N)c34)cc2F)on1` [Example 42, 1-(4-(4-amino-1-cyclopropyl-1H-pyrazolo[3,4-d]pyrimidin-3-yl)-2-fluorophenyl)-3-(3-ethylisoxazol-5-yl)urea]: the half-maximal inhibitory concentration (IC50) is 151 to 300 nM.

For the compound `Nc1ncnc2c1c(-c1ccc(NC(=O)Nc3cc(C4(C(F)(F)F)CC4)no3)c(F)c1)nn2C1CC(O)C1` (stereo not drawn) [Example 46, 1-(4-(4-amino-1-(3-hydroxycyclobutyl)-1H-pyrazolo[3,4-d]pyrimidin-3-yl)-2-fluorophenyl)-3-(3-(1-(trifluoromethyl)cyclopropyl)isoxazol-5-yl)urea], the IC50 was under 150 nM.

As to `CN1CC(n2nc(-c3ccc(NC(=O)Nc4cc(C5(C(F)(F)F)CC5)no4)c(F)c3)c3c(N)ncnc32)C1` [Example 49, 1-(4-(4-amino-1-(1-methylazetidin-3-yl)-1H-pyrazolo[3,4-d]pyrimidin-3-yl)-2-fluorophenyl)-3-(3-(1-(trifluoromethyl)cyclopropyl)isoxazol-5-yl)urea], the half-inhibitory concentration (IC50) is over 501 nM.

Turning to `Nc1ncnc2c1c(-c1cc(F)c(NC(=O)Nc3cc(C4(C(F)(F)F)CC4)no3)cc1F)nn2C1CC1` [Example 50, 1-(4-(4-amino-1-cyclopropyl-1H-pyrazolo[3,4-d]pyrimidin-3-yl)-2,5-difluorophenyl)-3-(3-(1-(trifluoromethyl)cyclopropyl)isoxazol-5-yl)urea], the half-maximal inhibitory concentration (IC50) lay within 301 to 500 nM.

Take `CC(C)(C#N)c1cc(NC(=O)Nc2ccc(-c3nn(C4CC4)c4ncnc(N)c34)cc2F)on1` [Example 52, 1-(4-(4-amino-1-cyclopropyl-1H-pyrazolo[3,4-d]pyrimidin-3-yl)-2-fluorophenyl)-3-(3-(2-cyanopropan-2-yl)isoxazol-5-yl)urea]: the IC50 was under 150 nM.

With `Nc1ncnc2c1c(-c1ccc(NC(=O)Nc3cc(CO)no3)c(F)c1)nn2C1CC1` [Example 53, 1-(4-(4-amino-1-cyclopropyl-1H-pyrazolo[3,4-d]pyrimidin-3-yl)-2-fluorophenyl)-3-(3-(hydroxymethyl)isoxazol-5-yl)urea], the 50% inhibitory concentration (IC50) was over 501 nM.

On to `Nc1nccc2c1c(-c1ccc(NC(=O)Nc3cc(C4(C(F)(F)F)CC4)no3)nc1)nn2C1CC1` [Example 54, 1-(5-(4-amino-1-cyclopropyl-1H-pyrazolo[4,3-c]pyridin-3-yl)pyridin-2-yl)-3-(3-(1-(trifluoromethyl)cyclopropyl)isoxazol-5-yl)urea], for which the IC50 was in the range of 151 to 300 nM.

For `Nc1ncnc2c1c(-c1ccc(NC(=O)Nc3cc(C4(C(F)(F)F)CC4)no3)c(F)c1)nn2CCO` [Example 55, 1-(4-(4-amino-1-(2-hydroxyethyl)-1H-pyrazolo[3,4-d]pyrimidin-3-yl)-2-fluorophenyl)-3-(3-(1-(trifluoromethyl)cyclopropyl)isoxazol-5-yl)urea], the IC50 is under 150 nM.

Turning to `COCCn1nc(-c2ccc(NC(=O)Nc3cc(C4(C(F)(F)F)CC4)no3)c(F)c2)c2c(N)ncnc21` [Example 57, 1-(4-(4-amino-1-(2-methoxyethyl)-1H-pyrazolo[3,4-d]pyrimidin-3-yl)-2-fluorophenyl)-3-(3-(1-(trifluoromethyl)cyclopropyl)isoxazol-5-yl)urea], the IC50 lay in the range of 151 to 300 nM.

On to `COCCn1nc(-c2ccc(NC(=O)Nc3cc(C4(C(F)(F)F)CC4)on3)c(F)c2)c2c(N)ncnc21` [Example 58, 1-(4-(4-amino-1-(2-methoxyethyl)-1H-pyrazolo[3,4-d]pyrimidin-3-yl)-2-fluorophenyl)-3-(5-(1-(trifluoromethyl)cyclopropyl)isoxazol-3-yl)urea], for which the IC50 is 151 to 300 nM.

Regarding `Cc1cc(-c2nn(C3CC3)c3ncnc(N)c23)ccc1NC(=O)Nc1cc(C2(C(F)(F)F)CC2)on1` [Example 59, 1-(4-(4-amino-1-cyclopropyl-1H-pyrazolo[3,4-d]pyrimidin-3-yl)-2-methylphenyl)-3-(5-(1-(trifluoromethyl)cyclopropyl)isoxazol-3-yl)urea], the IC50 is over 501 nM.

As to `Nc1ncnc2c1c(-c1ccc(NC(=O)Nc3cc(C4(C(F)(F)F)CC4)on3)c(F)c1)nn2C1CC(O)C1` (stereo not drawn) [Example 60, 1-(4-(4-amino-1-(3-hydroxycyclobutyl)-1H-pyrazolo[3,4-d]pyrimidin-3-yl)-2-fluorophenyl)-3-(5-(1-(trifluoromethyl)cyclopropyl)isoxazol-3-yl)urea], the IC50 was under 150 nM.

With `Nc1nccc2c1c(-c1ccc(NC(=O)Nc3cc(C4(C(F)(F)F)CC4)on3)c(F)c1)nn2C1CC1` [Example 61, 1-(4-(4-amino-1-cyclopropyl-1H-pyrazolo[4,3-c]pyridin-3-yl)-2-fluorophenyl)-3-(5-(1-(trifluoromethyl)cyclopropyl)isoxazol-3-yl)urea], the IC50 was over 501 nM.

Regarding `Nc1ncnc2c1c(-c1cc(F)c(NC(=O)Nc3cc(C4(C(F)(F)F)CC4)on3)cc1F)nn2C1CC1` [Example 62, 1-(4-(4-amino-1-cyclopropyl-1H-pyrazolo[3,4-d]pyrimidin-3-yl)-2,5-difluorophenyl)-3-(5-(1-(trifluoromethyl)cyclopropyl)isoxazol-3-yl)urea], the IC50 was in the range of 301 to 500 nM.

For the compound `Nc1ncnc2c1c(-c1ccc(NC(=O)Nc3cc(C4(C(F)(F)F)CC4)on3)c(CO)c1)nn2C1CC1` [Example 63, 1-(4-(4-amino-1-cyclopropyl-1H-pyrazolo[3,4-d]pyrimidin-3-yl)-2-(hydroxymethyl)phenyl)-3-(5-(1-(trifluoromethyl)cyclopropyl)isoxazol-3-yl)urea], the half-inhibitory concentration (IC50) was over 501 nM.

The record behind these values is US20230203045A1, “INHIBITORS OF NEK7 KINASE” (Halia Therapeutics, Inc., priority 2020, published 2023).
